Results reported in BindingDB's records for doi:10.1016/j.bmc.2018.08.021 (Zhengzhou University, 2018).

Assays:
[1] = Inhibition of ABCB1 (unknown origin) expressed in HEK293T cells assessed as potentiation of paclitaxel-induced cytotoxicity by measuring paclitaxel IC50 at 20 uM after 72 hrs by MTT assay (Rvb = 0.09 +/- 0.02 microM)
[2] = Inhibition of ABCB1 (unknown origin) expressed in HEK293T cells assessed as potentiation of cisplatin-induced cytotoxicity by measuring cisplatin IC50 at 10 uM after 72 hrs by MTT assay (Rvb = 7.22 +/- 0.45 microM)
[3] = Inhibition of ABCB1 (unknown origin) expressed in HEK293T cells assessed as potentiation of doxorubicin-induced cytotoxicity by measuring doxorubicin IC50 at 4 uM after 72 hrs by MTT assay (Rvb = 1.17 +/- 0.09 microM)
[4] = Inhibition of ABCB1 in human SW620/Ad300 cells assessed as potentiation of cisplatin-induced cytotoxicity by measuring cisplatin IC50 at 10 uM after 72 hrs by MTT assay (Rvb = 0.61 +/- 0.03 microM)
[5] = Inhibition of ABCB1 (unknown origin) expressed in HEK293T cells assessed as potentiation of cisplatin-induced cytotoxicity by measuring cisplatin IC50 at 20 uM after 72 hrs by MTT assay (Rvb = 7.22 +/- 0.45 microM)
[6] = Inhibition of ABCB1 in human SW620/Ad300 cells assessed as potentiation of paclitaxel-induced cytotoxicity by measuring paclitaxel IC50 at 20 uM after 72 hrs by MTT assay (Rvb = 3.39 +/- 0.84 microM)
[7] = Inhibition of ABCB1 (unknown origin) expressed in HEK293T cells assessed as potentiation of doxorubicin-induced cytotoxicity by measuring doxorubicin IC50 at 10 uM after 72 hrs by MTT assay (Rvb = 1.17 +/- 0.09 microM)
[8] = Inhibition of ABCB1 in human SW620/Ad300 cells assessed as potentiation of cisplatin-induced cytotoxicity by measuring cisplatin IC50 at 4 uM after 72 hrs by MTT assay (Rvb = 0.61 +/- 0.03 microM)
[9] = Inhibition of ABCB1 in human SW620/Ad300 cells assessed as potentiation of cisplatin-induced cytotoxicity by measuring cisplatin IC50 at 20 uM after 72 hrs by MTT assay (Rvb = 0.61 +/- 0.03 microM)
[10] = Inhibition of ABCB1 in human SW620/Ad300 cells assessed as potentiation of paclitaxel-induced cytotoxicity by measuring paclitaxel IC50 at 10 uM after 72 hrs by MTT assay (Rvb = 3.39 +/- 0.84 microM)
[11] = Inhibition of ABCB1 in human SW620/Ad300 cells assessed as potentiation of paclitaxel-induced cytotoxicity by measuring paclitaxel IC50 at 4 uM after 72 hrs by MTT assay (Rvb = 3.39 +/- 0.84 microM)
[12] = Inhibition of ABCB1 in human SW620/Ad300 cells assessed as potentiation of doxorubicin-induced cytotoxicity by measuring doxorubicin IC50 at 20 uM after 72 hrs by MTT assay (Rvb = 6.15 +/- 0.63 microM)
[13] = Inhibition of ABCB1 (unknown origin) expressed in HEK293T cells assessed as potentiation of doxorubicin-induced cytotoxicity by measuring doxorubicin IC50 at 20 uM after 72 hrs by MTT assay (Rvb = 1.17 +/- 0.09 microM)
[14] = Inhibition of ABCB1 in human SW620/Ad300 cells assessed as potentiation of doxorubicin-induced cytotoxicity by measuring doxorubicin IC50 at 4 uM after 72 hrs by MTT assay (Rvb = 6.15 +/- 0.63 microM)
[15] = Inhibition of ABCB1 (unknown origin) expressed in HEK293T cells assessed as potentiation of paclitaxel-induced cytotoxicity by measuring paclitaxel IC50 at 4 uM after 72 hrs by MTT assay (Rvb = 0.09 +/- 0.02 microM)
[16] = Inhibition of ABCB1 (unknown origin) expressed in HEK293T cells assessed as potentiation of paclitaxel-induced cytotoxicity by measuring paclitaxel IC50 at 10 uM after 72 hrs by MTT assay (Rvb = 0.09 +/- 0.02 microM)
[17] = Inhibition of ABCB1 in human SW620/Ad300 cells assessed as potentiation of doxorubicin-induced cytotoxicity by measuring doxorubicin IC50 at 10 uM after 72 hrs by MTT assay (Rvb = 6.15 +/- 0.63 microM)
[18] = Inhibition of ABCB1 (unknown origin) expressed in HEK293T cells assessed as potentiation of cisplatin-induced cytotoxicity by measuring cisplatin IC50 at 4 uM after 72 hrs by MTT assay (Rvb = 7.22 +/- 0.45 microM)

Question: For `O=c1cc(-c2ccccc2)[nH]c2nc(SCc3nc4ccccc4[nH]3)nn12`, which IC50 [1] is on record?
Answer: 40 nM

Question: And the IC50 [2]?
Answer: 8260 nM

Question: And the IC50 [3]?
Answer: 290 nM

Question: And the IC50 [4]?
Answer: 1550 nM

Question: And the IC50 [5]?
Answer: 7160 nM

Question: And the IC50 [6]?
Answer: 660 nM

Question: And the IC50 [7]?
Answer: 380 nM

Question: And the IC50 [8]?
Answer: 1590 nM

Question: What about the IC50 [9] of the same molecule?
Answer: 1640 nM

Question: What about the IC50 [10] of the same molecule?
Answer: 1470 nM

Question: And the IC50 [11]?
Answer: 830 nM

Question: What about the IC50 [12] of the same molecule?
Answer: 800 nM

Question: And the IC50 [13]?
Answer: 290 nM

Question: What about the IC50 [14] of the same molecule?
Answer: 920 nM

Question: And the IC50 [15]?
Answer: 30 nM

Question: And the IC50 [16]?
Answer: 50 nM

Question: And the IC50 [17]?
Answer: 1280 nM

Question: What about the IC50 [18] of the same molecule?
Answer: 7100 nM
